Reference: US7964531B2, “3-phenoxy-4-pyridazinol derivatives and herbicidal composition containing the same” (Mitsui Chemicals Agro, Inc., priority 2001, dated 2011)

Columns and labels:
Assay type in all cases: in vivo
Details in all cases: wettable powder applied 3 days after transplanting, judged after 25 days
[1] = tested on: transplanted paddy-field rice; assay: Test Example 1: crop injury against transplanted paddy-field rice
Method in brief: (§1)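 Herbicidal effect and crop injury were rated 0 (0-10% inhibition) to 5 (91-100%) 25 days after treatment. Water-diluted wettable powder was applied to flooded greenhouse pots 3 days after transplanting 2.2-leaf rice. The pots held seeded weeds and sprouted Cyperus serotinus tubers.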

[2] = tested on: barnyardgrass (Echinochloa oryzicola Vasing.); assay: Test Example 1: herbicidal effects, paddy-field pot test
Method in brief: as §1

[3] = tested on: annual broad-leaved weeds (Lindernia spp., Rotala indica); assay: as above
Method in brief: as §1

Scirpus joncoides = assay: as above
Method in brief: as §1

Cyperus serotinus = assay: as above
Method in brief: as §1

CCOC(=O)Oc1cc(Cl)nnc1Oc1ccccc1C1CC1 [Example 347]
Crop injury against transplanted rice ([1]; chemical dosage 10 g/a): 0 (Growth inhibition rate; 0 to 10%)
Crop injury against transplanted rice ([1]; chemical dosage 20 g/a): 0 (Growth inhibition rate; 0 to 10%)
Herbicidal effects Barnyard grass ([2]; chemical dosage 10 g/a): 3 (Growth inhibition rate; 51 to 70%)
Herbicidal effects Barnyard grass ([2]; chemical dosage 20 g/a): 4 (Growth inhibition rate; 71 to 90%)
Herbicidal effects Broad leaf ([3]; chemical dosage 10 g/a): 5 (Growth inhibition rate; 91 to 100%)
Herbicidal effects Broad leaf ([3]; chemical dosage 20 g/a): 5 (Growth inhibition rate; 91 to 100%)
Herbicidal effects Scirpus joncoides (Scirpus joncoides; chemical dosage 10 g/a): 5 (Growth inhibition rate; 91 to 100%)
Herbicidal effects Scirpus joncoides (Scirpus joncoides; chemical dosage 20 g/a): 5 (Growth inhibition rate; 91 to 100%)
Herbicidal effects Cyperus serotinus (Cyperus serotinus; chemical dosage 10 g/a): 5 (Growth inhibition rate; 91 to 100%)
Herbicidal effects Cyperus serotinus (Cyperus serotinus; chemical dosage 20 g/a): 5 (Growth inhibition rate; 91 to 100%)

Cc1ccc(C(C)C)c(Oc2nnc(Cl)cc2O)c1 [Example 212]
Crop injury against transplanted rice ([1]; chemical dosage 12.5 g/a): 0 (Growth inhibition rate; 0 to 10%)
Crop injury against transplanted rice ([1]; chemical dosage 25 g/a): 0 (Growth inhibition rate; 0 to 10%)
Herbicidal effects Barnyard grass ([2]; chemical dosage 12.5 g/a): 1 (Growth inhibition rate; 11 to 30%)
Herbicidal effects Barnyard grass ([2]; chemical dosage 25 g/a): 2 (Growth inhibition rate; 31 to 50%)
Herbicidal effects Broad leaf ([3]; chemical dosage 12.5 g/a): 5 (Growth inhibition rate; 91 to 100%)
Herbicidal effects Broad leaf ([3]; chemical dosage 25 g/a): 5 (Growth inhibition rate; 91 to 100%)
Herbicidal effects Scirpus joncoides (Scirpus joncoides; chemical dosage 12.5 g/a): 5 (Growth inhibition rate; 91 to 100%)
Herbicidal effects Scirpus joncoides (Scirpus joncoides; chemical dosage 25 g/a): 5 (Growth inhibition rate; 91 to 100%)
Herbicidal effects Cyperus serotinus (Cyperus serotinus; chemical dosage 12.5 g/a): 5 (Growth inhibition rate; 91 to 100%)
Herbicidal effects Cyperus serotinus (Cyperus serotinus; chemical dosage 25 g/a): 5 (Growth inhibition rate; 91 to 100%)

CC(C)c1ccccc1Oc1nnc(Cl)cc1O [Example 57]
Crop injury against transplanted rice ([1]; chemical dosage 12.5 g/a): 0 (Growth inhibition rate; 0 to 10%)
Crop injury against transplanted rice ([1]; chemical dosage 25 g/a): 0 (Growth inhibition rate; 0 to 10%)
Herbicidal effects Barnyard grass ([2]; chemical dosage 12.5 g/a): 2 (Growth inhibition rate; 31 to 50%)
Herbicidal effects Barnyard grass ([2]; chemical dosage 25 g/a): 2 (Growth inhibition rate; 31 to 50%)
Herbicidal effects Broad leaf ([3]; chemical dosage 12.5 g/a): 5 (Growth inhibition rate; 91 to 100%)
Herbicidal effects Broad leaf ([3]; chemical dosage 25 g/a): 5 (Growth inhibition rate; 91 to 100%)
Herbicidal effects Scirpus joncoides (Scirpus joncoides; chemical dosage 12.5 g/a): 3 (Growth inhibition rate; 51 to 70%)
Herbicidal effects Scirpus joncoides (Scirpus joncoides; chemical dosage 25 g/a): 4 (Growth inhibition rate; 71 to 90%)
Herbicidal effects Cyperus serotinus (Cyperus serotinus; chemical dosage 12.5 g/a): 5 (Growth inhibition rate; 91 to 100%)
Herbicidal effects Cyperus serotinus (Cyperus serotinus; chemical dosage 25 g/a): 5 (Growth inhibition rate; 91 to 100%)

CC1CC1c1ccccc1Oc1nnc(Cl)cc1O (centres unmarked) [Example 72]
Crop injury against transplanted rice ([1]; chemical dosage 10 g/a): 0 (Growth inhibition rate; 0 to 10%)
Crop injury against transplanted rice ([1]; chemical dosage 20 g/a): 0 (Growth inhibition rate; 0 to 10%)
Herbicidal effects Barnyard grass ([2]; chemical dosage 10 g/a): 3 (Growth inhibition rate; 51 to 70%)
Herbicidal effects Barnyard grass ([2]; chemical dosage 20 g/a): 3 (Growth inhibition rate; 51 to 70%)
Herbicidal effects Broad leaf ([3]; chemical dosage 10 g/a): 5 (Growth inhibition rate; 91 to 100%)
Herbicidal effects Broad leaf ([3]; chemical dosage 20 g/a): 5 (Growth inhibition rate; 91 to 100%)
Herbicidal effects Scirpus joncoides (Scirpus joncoides; chemical dosage 10 g/a): 5 (Growth inhibition rate; 91 to 100%)
Herbicidal effects Scirpus joncoides (Scirpus joncoides; chemical dosage 20 g/a): 5 (Growth inhibition rate; 91 to 100%)
Herbicidal effects Cyperus serotinus (Cyperus serotinus; chemical dosage 10 g/a): 4 (Growth inhibition rate; 71 to 90%)
Herbicidal effects Cyperus serotinus (Cyperus serotinus; chemical dosage 20 g/a): 5 (Growth inhibition rate; 91 to 100%)

CCc1cccc(Br)c1Oc1nnc(Cl)cc1O [Example 250]
Crop injury against transplanted rice ([1]; chemical dosage 10 g/a): 0 (Growth inhibition rate; 0 to 10%)
Crop injury against transplanted rice ([1]; chemical dosage 20 g/a): 0 (Growth inhibition rate; 0 to 10%)
Herbicidal effects Barnyard grass ([2]; chemical dosage 10 g/a): 3 (Growth inhibition rate; 51 to 70%)
Herbicidal effects Barnyard grass ([2]; chemical dosage 20 g/a): 4 (Growth inhibition rate; 71 to 90%)
Herbicidal effects Broad leaf ([3]; chemical dosage 10 g/a): 5 (Growth inhibition rate; 91 to 100%)
Herbicidal effects Broad leaf ([3]; chemical dosage 20 g/a): 5 (Growth inhibition rate; 91 to 100%)
Herbicidal effects Scirpus joncoides (Scirpus joncoides; chemical dosage 10 g/a): 5 (Growth inhibition rate; 91 to 100%)
Herbicidal effects Scirpus joncoides (Scirpus joncoides; chemical dosage 20 g/a): 5 (Growth inhibition rate; 91 to 100%)
Herbicidal effects Cyperus serotinus (Cyperus serotinus; chemical dosage 10 g/a): 5 (Growth inhibition rate; 91 to 100%)
Herbicidal effects Cyperus serotinus (Cyperus serotinus; chemical dosage 20 g/a): 5 (Growth inhibition rate; 91 to 100%)
